Paper PMC8776092, “A Toxoplasma gondii Oxopurine Transporter Binds Nucleobases and Nucleosides Using Different Binding Modes” (International Journal of Molecular Sciences, 2022)
“And” between values parts separate entries of the source, which are not always exact repeats. Equal entries are not always repeated. Where two headings read alike, the source gives them in different places.

Molecular target: T1, Tg244440 (Toxoplasma gondii, UniProt A0A125YNC9)
T1 sequence (A0A125YNC9 1-462): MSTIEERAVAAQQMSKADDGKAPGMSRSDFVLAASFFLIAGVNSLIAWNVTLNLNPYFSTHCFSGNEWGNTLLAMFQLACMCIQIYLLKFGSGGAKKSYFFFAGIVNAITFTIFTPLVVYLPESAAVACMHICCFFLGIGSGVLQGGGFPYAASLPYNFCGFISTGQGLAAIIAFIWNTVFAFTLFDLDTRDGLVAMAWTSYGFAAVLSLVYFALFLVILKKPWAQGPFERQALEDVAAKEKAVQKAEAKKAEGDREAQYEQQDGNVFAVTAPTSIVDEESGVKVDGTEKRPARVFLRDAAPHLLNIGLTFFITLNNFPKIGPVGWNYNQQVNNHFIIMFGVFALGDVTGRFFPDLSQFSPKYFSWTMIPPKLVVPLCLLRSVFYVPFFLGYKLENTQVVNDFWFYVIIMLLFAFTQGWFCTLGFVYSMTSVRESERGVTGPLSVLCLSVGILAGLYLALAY
Assay: [3H]-guanine uptake and its inhibition in T. brucei TbNB-KO procyclics expressing Tg244440 (clone F5)
Type: cell-based
Settings: for Ki: competition with 50 nM [3H]-guanine, 30 s, Cheng-Prusoff; for ΔG^0 (Gibbs free energy of interaction): calculated from Km or Ki, ΔG0 = −RTln(Ki)
Experimental: Briefly, PCF cells of T. brucei in logarithmic growth were harvested by centrifugation at 1000× g for 10 min, washed twice in AB and then resuspended in fresh buffer at a final density of 10^8 cells/mL. […] Immediately after finishing the assay, all tubes were flash-frozen in liquid nitrogen and the cell pellets were cut into scintillation vials and lysed with a solution of 2% SDS for one hour under agitation. Then, 3 mL of scintillation fluid (Scintilogic U, Lablogic) was added to each vial and left agitating overnight on a rocking platform. The next morning, the vials were vigorously shaken to ensure optimal mixing and the scintillation was measured in a 300SL (Hidex) scintillation counter. All assays were carried out in triplicate. All experimental data such as Km, Ki and Vmax values are the average and SEM of at least three separate experiments, each in triplicate, unless otherwise indicated.
Background scintillation was measured in vials containing no cells or radiolabeled substrate, and counts associated with extracellular radiolabel were calculated from samples where cells were briefly incubated with the same concentration of radiolabel, but in the presence of saturating concentrations of non-radiolabeled substrate before centrifugation through oil. The average of the three control replicates was subtracted from each data point.

| SMILES | Ki (Ki) | ΔG^0 (Gibbs free energy of interaction) | other results |
| --- | --- | --- | --- |
| OC[C@H]1O[C@@H](n2ccc3c(O)ncnc32)[C@H](O)[C@@H]1O [7-deazainosine] | 6.32 ± 0.32 µM | -7.1 kcal/mol | δ(ΔG^0) relative to Inosine: 0.263 kcal/mol |
| O=c1[nH]c(=O)c2[nH]ccc2[nH]1 [9-deazaxanthine] | 48.2 ± 5.4 µM | -5.88 kcal/mol | δ(ΔG^0) relative to Xanthine (relative to Xanthine): 0.072 kcal/mol |
| OC[C@@H]1C[C@@H](O)[C@H](n2cnc3c(O)ncnc32)O1 [3′-deoxyinosine] | 102 ± 15 µM | -5.45 kcal/mol | δ(ΔG^0) relative to Inosine: 1.91 kcal/mol |
| Cn1c(=O)[nH]c(=O)c2[nH]cnc21 [3-methylxanthine] | 14.6 ± 3.1 µM | -6.6 kcal/mol | – |
| OC[C@H]1O[C@@H](n2cnc3c(O)ncnc32)C[C@@H]1O [2′-deoxyinosine] | 117 ± 12 µM | -5.35 kcal/mol | δ(ΔG^0) relative to Inosine: 1.98 kcal/mol |
| OC[C@H]1O[C@@H](n2cc(Cl)c3c(O)ncnc32)[C@H](O)[C@@H]1O [7-deaza-7-Chloroinosine] | 8.9 ± 1.3 µM | -6.88 kcal/mol | Affinity for Tg244440 (in words): high affinity; δ(ΔG^0) relative to Inosine: 0.454 kcal/mol |
| Nc1nccc2c1ncn2[C@@H]1O[C@H](CO)[C@@H](O)[C@H]1O [3-deazaadenosine] | 1220 ± 140 µM | -3.97 kcal/mol | δ(ΔG^0) relative to Adenosine: 1.72 kcal/mol |
| O=C1CC=Nc2nc[nH]c21 [1-deazahypoxanthine] | 194 ± 43 µM | -5.07 kcal/mol | δ(ΔG^0) relative to Hypoxanthine: 2.63 kcal/mol |
| O=c1[nH]cnc2nn[nH]c12 [8-azahypoxanthine] | > 1000 µM | – | inhibition at 1000 µM (read-out: Inhibition of the transport of 50 nM [3H]-guanine): < 50%; δ(ΔG^0) relative to Hypoxanthine: >3.61 kcal/mol |
| Oc1ncnc2[nH]ncc12 [Allopurinol] | 185 ± 15 µM | -5.09 kcal/mol | δ(ΔG^0) relative to Hypoxanthine: 2.61 kcal/mol |
| O=c1[nH]cnc2[nH]nc(Br)c12 [7-Br-allopurinol] | – | -5.71 kcal/mol | Ki (read-out: Ki): 65.7 ± 3.7 µM |
| Nc1ncnc2[nH]cnc12 [Adenine] | 425 ± 80 µM | -4.59 kcal/mol | Affinity for Tg244440 (in words): Low affinity; δ(ΔG^0) relative to Hypoxanthine: 3.11 kcal/mol |
| Nc1ncnc2c1ncn2[C@@H]1O[C@H](CO)C[C@H]1O [3′-deoxyadenosine] | 71.9 ± 2.3 µM | -5.64 kcal/mol | δ(ΔG^0) relative to Adenosine: 0.024 kcal/mol |
| Clc1ncnc2nc[nH]c12 [6-Chloropurine] | 109 ± 8 µM | -5.4 kcal/mol | δ(ΔG^0) relative to Hypoxanthine: 2.29 kcal/mol |
| OC[C@H]1O[C@@H](n2cnc3c(O)ccnc32)[C@H](O)[C@@H]1O [1-deazainosine] | 524 ± 53 µM | – | δ(ΔG^0) relative to Inosine: 2.89 kcal/mol |
| O=[N+]([O-])c1ccc(CSc2ncnc3c2ncn3[C@@H]2O[C@H](CO)[C@@H](O)[C@H]2O)cc1 [S-(4-nitrobenzyl)-6-thioinosine (NBMPR), S-(4-nitrobenzyl)-6-thioinosine] | 78 ± 6 µM | -5.59 kcal/mol | δ(ΔG^0) relative to Adenosine: 0.0837 kcal/mol |
| O=c1[nH]cnc2cc[nH]c12 [9-deazahypoxanthine] | 9.12 ± 0.66 µM | -6.88 kcal/mol | δ(ΔG^0) relative to Hypoxanthine: 0.837 kcal/mol |

| SMILES | Ki (Ki) | ΔG^0 (Gibbs free energy of interaction) | other results |
| --- | --- | --- | --- |
| Nc1nc(N)c2[nH]cnc2n1 [2,6-diaminopurine] | 211 ± 3.5 µM | -5.02 kcal/mol | δ(ΔG^0) relative to Adenine: -0.406 kcal/mol |
| Nc1nc2cc[nH]c2c(=O)[nH]1 [9-deazaguanine] | 9.64 ± 1.59 µM | -6.84 kcal/mol | δ(ΔG^0) relative to Guanine: 1.22 kcal/mol |
| OC[C@H]1O[C@@H](n2cnc3cncnc32)[C@H](O)[C@@H]1O [Nebularine, 9-(β-D-ribofuranosyl)purine] | 491 ± 75 µM | -4.52 kcal/mol | ΔG^0 (Gibbs free energy of interaction) (listed as nebularine): 4.52 kcal/mol; δ(ΔG^0) relative to Adenosine: 1.17 kcal/mol; δ(ΔG^0) relative to Inosine: 2.84 kcal/mol |
| OC[C@H]1O[C@@H](n2cc(Br)c3c(O)ncnc32)[C@H](O)[C@@H]1O [7-deaza-7-Bromoinosine] | 7.8 ± 1.2 µM | -6.98 kcal/mol | Affinity for Tg244440 (in words): high affinity; δ(ΔG^0) relative to Inosine: 0.382 kcal/mol |
| O=c1[nH]c(=O)c2nc[nH]c2[nH]1 [Xanthine] | 42.4 ± 4.2 µM | -5.95 kcal/mol | δ(ΔG^0) relative to Guanine: 2.08 kcal/mol; δ(ΔG^0) relative to Hypoxanthine: 1.74 kcal/mol |
| Nc1nc2nc[nH]c2c(=S)[nH]1 [6-Thioguanine] | 1.64 ± 0.25 µM | -7.89 kcal/mol | δ(ΔG^0) relative to Guanine: 0.17 kcal/mol |
| Nc1ncnc2c1ncn2[C@H]1C[C@H](O)[C@@H](CO)O1 [2′-deoxyadenosine] | 83.9 ± 6.2 µM | -5.57 kcal/mol | δ(ΔG^0) relative to Adenosine: 0.12 kcal/mol |
| Nc1nc2c(ncn2[C@@H]2O[C@H](CO)C[C@H]2O)c(=O)[nH]1 [3′-deoxyguanosine] | 196 ± 12 µM | -5.07 kcal/mol | δ(ΔG^0) relative to Guanosine (relative to Guanosine): 2.25 kcal/mol and 2.41 kcal/mol |
| Nc1ccnc2c1ncn2[C@@H]1O[C@H](CO)[C@@H](O)[C@H]1O [1-deazaadenosine] | 191 ± 10 µM | -5.07 kcal/mol | δ(ΔG^0) relative to Adenosine: 0.621 kcal/mol |
| OC[C@H]1O[C@@H](n2cnc3c(S)ncnc32)[C@H](O)[C@@H]1O [6-thioinosine] | 7.3 ± 1.2 µM | -7 kcal/mol | δ(ΔG^0) relative to Inosine: 0.335 kcal/mol |
| O=c1[nH]cnc2c1CC=N2 [7-deazahypoxanthine] | 318 ± 30 µM | -4.78 kcal/mol | δ(ΔG^0) relative to Hypoxanthine: 2.94 kcal/mol |
| CCOc1ncnc2c1c(Cl)cn2[C@@H]1O[C@H](CO)[C@@H](O)[C@H]1O [6-O-ethyl,7-deaza,7-Cl-inosine] | – | -5.14 kcal/mol | Ki (read-out: Ki): 169 ± 10 µM; δ(ΔG^0) relative to Inosine: 2.2 kcal/mol |
| Nc1nc2c(c(=O)[nH]1)CC=N2 [7-deazaguanine] | 49.2 ± 5.8 µM | -5.88 kcal/mol | δ(ΔG^0) relative to Guanine: 2.17 kcal/mol |
| Nc1ncnc2n[nH]cc12 [Aminopurinol] | – | -4.97 kcal/mol | Ki (read-out: Ki): 223 ± 27 µM; δ(ΔG^0) relative to Adenine: -0.382 kcal/mol |
| Cn1cnc2c(=O)cc[nH]c21 [9-Me,1-deazahypoxanthine] | – | – | Ki (read-out: Ki): > 1000 µM; δ(ΔG^0) relative to Hypoxanthine: >3.61 kcal/mol |
| OC[C@@H]1C[C@@H](O)[C@H](n2ccc3c(O)ncnc32)O1 [7-deaza-3′-deoxyinosine] | 70.8 ± 11.2 µM | -5.66 kcal/mol | δ(ΔG^0) relative to 3′-Deoxyinosine (relative to 3′-Deoxyinosine): -0.22 kcal/mol |
| C[C@H]1O[C@@H](n2cnc3c(N)ncnc32)[C@H](O)[C@@H]1O [5′-deoxyadenosine] | 85.2 ± 4.2 µM | -5.54 kcal/mol | δ(ΔG^0) relative to Adenosine: 0.14 kcal/mol |
